# Test results published in PubChem BioAssay (NCI).
#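 Step 1: Grow cells in 96-well plates. Step 2: Expose to compound for 48 hours at 5 concentrations. Step 3: Interpolate endpoints linearly; if unreached, use highest concentration. TGI is the concentration that stops growth completely.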
# Test system: 786-0 renal
# Experiment: NCI tumour cell line growth inhibition, 48 h
row,SMILES,TGI [µM]
1,CC1(C)[C@@H]2CC[C@]1(C)[C@H](OC(=O)CSC#N)C2,34.1
2,Cc1ccc(-n2[nH]nc(C(N)=O)c2=O)cc1,> 100
3,COc1ccc2c(c1)CN1C(=N2)CSC1c1cccc(Br)c1 (stereo unspecified),42.8
4,O=S(=O)(O)c1ccc(N=Nc2ccc3c(S(=O)(=O)O)cccc3c2O)c2ccccc12,> 100

# Test system: A498 renal
# Experiment: NCI tumour cell line growth inhibition, 48 h
row,SMILES,TGI [µM]
1,CC1(C)[C@@H]2CC[C@]1(C)[C@H](OC(=O)CSC#N)C2,> 100
2,O=S(=O)(O)c1ccc(N=Nc2ccc3c(S(=O)(=O)O)cccc3c2O)c2ccccc12,> 100

# Test system: A549 NSCLC
# Experiment: NCI tumour cell line growth inhibition, 48 h
row,SMILES,TGI [µM]
1,CC1(C)[C@@H]2CC[C@]1(C)[C@H](OC(=O)CSC#N)C2,> 100
2,Cc1ccc(-n2[nH]nc(C(N)=O)c2=O)cc1,> 100
3,COc1ccc2c(c1)CN1C(=N2)CSC1c1cccc(Br)c1 (stereo unspecified),> 100
4,O=S(=O)(O)c1ccc(N=Nc2ccc3c(S(=O)(=O)O)cccc3c2O)c2ccccc12,> 100

# Test system: ACHN renal
# Experiment: NCI tumour cell line growth inhibition, 48 h
row,SMILES,TGI [µM]
1,CC1(C)[C@@H]2CC[C@]1(C)[C@H](OC(=O)CSC#N)C2,> 100
2,Cc1ccc(-n2[nH]nc(C(N)=O)c2=O)cc1,> 100
3,COc1ccc2c(c1)CN1C(=N2)CSC1c1cccc(Br)c1 (stereo unspecified),> 100
4,O=S(=O)(O)c1ccc(N=Nc2ccc3c(S(=O)(=O)O)cccc3c2O)c2ccccc12,> 100

# Test system: BT-549 breast
# Experiment: NCI tumour cell line growth inhibition, 48 h
row,SMILES,TGI [µM]
1,CC1(C)[C@@H]2CC[C@]1(C)[C@H](OC(=O)CSC#N)C2,> 100
2,Cc1ccc(-n2[nH]nc(C(N)=O)c2=O)cc1,> 100
3,COc1ccc2c(c1)CN1C(=N2)CSC1c1cccc(Br)c1 (stereo unspecified),> 100
4,O=S(=O)(O)c1ccc(N=Nc2ccc3c(S(=O)(=O)O)cccc3c2O)c2ccccc12,> 100

# Test system: CAKI-1 renal
# Experiment: NCI tumour cell line growth inhibition, 48 h
row,SMILES,TGI [µM]
1,CC1(C)[C@@H]2CC[C@]1(C)[C@H](OC(=O)CSC#N)C2,> 100
2,Cc1ccc(-n2[nH]nc(C(N)=O)c2=O)cc1,> 100
3,COc1ccc2c(c1)CN1C(=N2)CSC1c1cccc(Br)c1 (stereo unspecified),> 100
4,O=S(=O)(O)c1ccc(N=Nc2ccc3c(S(=O)(=O)O)cccc3c2O)c2ccccc12,> 100

# Test system: CCRF-CEM leukemia
# Experiment: NCI tumour cell line growth inhibition, 48 h
row,SMILES,TGI [µM]
1,Cc1ccc(-n2[nH]nc(C(N)=O)c2=O)cc1,> 100

# Test system: COLO 205 colon
# Experiment: NCI tumour cell line growth inhibition, 48 h
row,SMILES,TGI [µM]
1,CC1(C)[C@@H]2CC[C@]1(C)[C@H](OC(=O)CSC#N)C2,> 100
2,Cc1ccc(-n2[nH]nc(C(N)=O)c2=O)cc1,> 100
3,COc1ccc2c(c1)CN1C(=N2)CSC1c1cccc(Br)c1 (stereo unspecified),> 100
4,O=S(=O)(O)c1ccc(N=Nc2ccc3c(S(=O)(=O)O)cccc3c2O)c2ccccc12,> 100

# Test system: DU-145 prostate
# Experiment: NCI tumour cell line growth inhibition, 48 h
row,SMILES,TGI [µM]
1,CC1(C)[C@@H]2CC[C@]1(C)[C@H](OC(=O)CSC#N)C2,> 100
2,Cc1ccc(-n2[nH]nc(C(N)=O)c2=O)cc1,> 100
3,O=S(=O)(O)c1ccc(N=Nc2ccc3c(S(=O)(=O)O)cccc3c2O)c2ccccc12,> 100

# Test system: EKVX NSCLC
# Experiment: NCI tumour cell line growth inhibition, 48 h
row,SMILES,TGI [µM]
1,CC1(C)[C@@H]2CC[C@]1(C)[C@H](OC(=O)CSC#N)C2,> 100
2,Cc1ccc(-n2[nH]nc(C(N)=O)c2=O)cc1,> 100
3,COc1ccc2c(c1)CN1C(=N2)CSC1c1cccc(Br)c1 (stereo unspecified),> 100
4,O=S(=O)(O)c1ccc(N=Nc2ccc3c(S(=O)(=O)O)cccc3c2O)c2ccccc12,> 100

# Test system: HCC-2998 colon
# Experiment: NCI tumour cell line growth inhibition, 48 h
row,SMILES,TGI [µM]
1,CC1(C)[C@@H]2CC[C@]1(C)[C@H](OC(=O)CSC#N)C2,> 100
2,Cc1ccc(-n2[nH]nc(C(N)=O)c2=O)cc1,> 100
3,COc1ccc2c(c1)CN1C(=N2)CSC1c1cccc(Br)c1 (stereo unspecified),57.8

# Test system: HCT-116 colon
# Experiment: NCI tumour cell line growth inhibition, 48 h
row,SMILES,TGI [µM]
1,CC1(C)[C@@H]2CC[C@]1(C)[C@H](OC(=O)CSC#N)C2,> 100
2,Cc1ccc(-n2[nH]nc(C(N)=O)c2=O)cc1,> 100
3,COc1ccc2c(c1)CN1C(=N2)CSC1c1cccc(Br)c1 (stereo unspecified),> 100
4,O=S(=O)(O)c1ccc(N=Nc2ccc3c(S(=O)(=O)O)cccc3c2O)c2ccccc12,> 100

# Test system: HCT-15 colon
# Experiment: NCI tumour cell line growth inhibition, 48 h
row,SMILES,TGI [µM]
1,CC1(C)[C@@H]2CC[C@]1(C)[C@H](OC(=O)CSC#N)C2,> 100
2,Cc1ccc(-n2[nH]nc(C(N)=O)c2=O)cc1,> 100
3,COc1ccc2c(c1)CN1C(=N2)CSC1c1cccc(Br)c1 (stereo unspecified),> 100
4,O=S(=O)(O)c1ccc(N=Nc2ccc3c(S(=O)(=O)O)cccc3c2O)c2ccccc12,> 100

# Test system: HL-60(TB) leukemia
# Experiment: NCI tumour cell line growth inhibition, 48 h
row,SMILES,TGI [µM]
1,Cc1ccc(-n2[nH]nc(C(N)=O)c2=O)cc1,> 100
2,COc1ccc2c(c1)CN1C(=N2)CSC1c1cccc(Br)c1 (stereo unspecified),22.3

# Test system: HOP-62 NSCLC
# Experiment: NCI tumour cell line growth inhibition, 48 h
row,SMILES,TGI [µM]
1,CC1(C)[C@@H]2CC[C@]1(C)[C@H](OC(=O)CSC#N)C2,> 100
2,Cc1ccc(-n2[nH]nc(C(N)=O)c2=O)cc1,> 100
3,COc1ccc2c(c1)CN1C(=N2)CSC1c1cccc(Br)c1 (stereo unspecified),> 100
4,O=S(=O)(O)c1ccc(N=Nc2ccc3c(S(=O)(=O)O)cccc3c2O)c2ccccc12,> 100

# Test system: HOP-92 NSCLC
# Experiment: NCI tumour cell line growth inhibition, 48 h
row,SMILES,TGI [µM]
1,CC1(C)[C@@H]2CC[C@]1(C)[C@H](OC(=O)CSC#N)C2,> 100
2,COc1ccc2c(c1)CN1C(=N2)CSC1c1cccc(Br)c1 (stereo unspecified),> 100
3,O=S(=O)(O)c1ccc(N=Nc2ccc3c(S(=O)(=O)O)cccc3c2O)c2ccccc12,> 100

# Test system: HS 578T breast
# Experiment: NCI tumour cell line growth inhibition, 48 h
row,SMILES,TGI [µM]
1,CC1(C)[C@@H]2CC[C@]1(C)[C@H](OC(=O)CSC#N)C2,> 100
2,Cc1ccc(-n2[nH]nc(C(N)=O)c2=O)cc1,> 100
3,COc1ccc2c(c1)CN1C(=N2)CSC1c1cccc(Br)c1 (stereo unspecified),> 100
4,O=S(=O)(O)c1ccc(N=Nc2ccc3c(S(=O)(=O)O)cccc3c2O)c2ccccc12,> 100

# Test system: HT29 colon
# Experiment: NCI tumour cell line growth inhibition, 48 h
row,SMILES,TGI [µM]
1,CC1(C)[C@@H]2CC[C@]1(C)[C@H](OC(=O)CSC#N)C2,> 100
2,Cc1ccc(-n2[nH]nc(C(N)=O)c2=O)cc1,> 100
3,COc1ccc2c(c1)CN1C(=N2)CSC1c1cccc(Br)c1 (stereo unspecified),72.3
4,O=S(=O)(O)c1ccc(N=Nc2ccc3c(S(=O)(=O)O)cccc3c2O)c2ccccc12,> 100

# Test system: IGROV1 ovarian
# Experiment: NCI tumour cell line growth inhibition, 48 h
row,SMILES,TGI [µM]
1,CC1(C)[C@@H]2CC[C@]1(C)[C@H](OC(=O)CSC#N)C2,> 100
2,Cc1ccc(-n2[nH]nc(C(N)=O)c2=O)cc1,> 100
3,COc1ccc2c(c1)CN1C(=N2)CSC1c1cccc(Br)c1 (stereo unspecified),> 100
4,O=S(=O)(O)c1ccc(N=Nc2ccc3c(S(=O)(=O)O)cccc3c2O)c2ccccc12,> 100

# Test system: K-562 leukemia
# Experiment: NCI tumour cell line growth inhibition, 48 h
row,SMILES,TGI [µM]
1,Cc1ccc(-n2[nH]nc(C(N)=O)c2=O)cc1,> 100
2,COc1ccc2c(c1)CN1C(=N2)CSC1c1cccc(Br)c1 (stereo unspecified),> 100

# Test system: KM12 colon
# Experiment: NCI tumour cell line growth inhibition, 48 h
row,SMILES,TGI [µM]
1,CC1(C)[C@@H]2CC[C@]1(C)[C@H](OC(=O)CSC#N)C2,> 100
2,Cc1ccc(-n2[nH]nc(C(N)=O)c2=O)cc1,> 100
3,COc1ccc2c(c1)CN1C(=N2)CSC1c1cccc(Br)c1 (stereo unspecified),> 100
4,O=S(=O)(O)c1ccc(N=Nc2ccc3c(S(=O)(=O)O)cccc3c2O)c2ccccc12,> 100

# Test system: LOX IMVI melanoma
# Experiment: NCI tumour cell line growth inhibition, 48 h
row,SMILES,TGI [µM]
1,CC1(C)[C@@H]2CC[C@]1(C)[C@H](OC(=O)CSC#N)C2,> 100
2,COc1ccc2c(c1)CN1C(=N2)CSC1c1cccc(Br)c1 (stereo unspecified),> 100
3,O=S(=O)(O)c1ccc(N=Nc2ccc3c(S(=O)(=O)O)cccc3c2O)c2ccccc12,> 100

# Test system: M14 melanoma
# Experiment: NCI tumour cell line growth inhibition, 48 h
row,SMILES,TGI [µM]
1,CC1(C)[C@@H]2CC[C@]1(C)[C@H](OC(=O)CSC#N)C2,> 100
2,Cc1ccc(-n2[nH]nc(C(N)=O)c2=O)cc1,> 100
3,COc1ccc2c(c1)CN1C(=N2)CSC1c1cccc(Br)c1 (stereo unspecified),> 100
4,O=S(=O)(O)c1ccc(N=Nc2ccc3c(S(=O)(=O)O)cccc3c2O)c2ccccc12,> 100

# Test system: MALME-3M melanoma
# Experiment: NCI tumour cell line growth inhibition, 48 h
row,SMILES,TGI [µM]
1,CC1(C)[C@@H]2CC[C@]1(C)[C@H](OC(=O)CSC#N)C2,> 100
2,Cc1ccc(-n2[nH]nc(C(N)=O)c2=O)cc1,> 100
3,COc1ccc2c(c1)CN1C(=N2)CSC1c1cccc(Br)c1 (stereo unspecified),> 100
4,O=S(=O)(O)c1ccc(N=Nc2ccc3c(S(=O)(=O)O)cccc3c2O)c2ccccc12,> 100

# Test system: MCF7 breast
# Experiment: NCI tumour cell line growth inhibition, 48 h
row,SMILES,TGI [µM]
1,CC1(C)[C@@H]2CC[C@]1(C)[C@H](OC(=O)CSC#N)C2,> 100
2,Cc1ccc(-n2[nH]nc(C(N)=O)c2=O)cc1,> 100
3,COc1ccc2c(c1)CN1C(=N2)CSC1c1cccc(Br)c1 (stereo unspecified),> 100
4,O=S(=O)(O)c1ccc(N=Nc2ccc3c(S(=O)(=O)O)cccc3c2O)c2ccccc12,> 100

# Test system: MDA-MB-231 breast
# Experiment: NCI tumour cell line growth inhibition, 48 h
row,SMILES,TGI [µM]
1,CC1(C)[C@@H]2CC[C@]1(C)[C@H](OC(=O)CSC#N)C2,> 100
2,Cc1ccc(-n2[nH]nc(C(N)=O)c2=O)cc1,> 100
3,COc1ccc2c(c1)CN1C(=N2)CSC1c1cccc(Br)c1 (stereo unspecified),> 100
4,O=S(=O)(O)c1ccc(N=Nc2ccc3c(S(=O)(=O)O)cccc3c2O)c2ccccc12,> 100

# Test system: MDA-MB-435
# Experiment: NCI tumour cell line growth inhibition, 48 h
row,SMILES,TGI [µM]
1,CC1(C)[C@@H]2CC[C@]1(C)[C@H](OC(=O)CSC#N)C2,> 100
2,Cc1ccc(-n2[nH]nc(C(N)=O)c2=O)cc1,> 100
3,COc1ccc2c(c1)CN1C(=N2)CSC1c1cccc(Br)c1 (stereo unspecified),> 100
4,O=S(=O)(O)c1ccc(N=Nc2ccc3c(S(=O)(=O)O)cccc3c2O)c2ccccc12,> 100

# Test system: MDA-N
# Experiment: NCI tumour cell line growth inhibition, 48 h
row,SMILES,TGI [µM]
1,CC1(C)[C@@H]2CC[C@]1(C)[C@H](OC(=O)CSC#N)C2,> 100
2,Cc1ccc(-n2[nH]nc(C(N)=O)c2=O)cc1,> 100
3,COc1ccc2c(c1)CN1C(=N2)CSC1c1cccc(Br)c1 (stereo unspecified),> 100
4,O=S(=O)(O)c1ccc(N=Nc2ccc3c(S(=O)(=O)O)cccc3c2O)c2ccccc12,> 100

# Test system: MOLT-4 leukemia
# Experiment: NCI tumour cell line growth inhibition, 48 h
row,SMILES,TGI [µM]
1,Cc1ccc(-n2[nH]nc(C(N)=O)c2=O)cc1,> 100
2,COc1ccc2c(c1)CN1C(=N2)CSC1c1cccc(Br)c1 (stereo unspecified),63.2

# Test system: NCI-H226 lung
# Experiment: NCI tumour cell line growth inhibition, 48 h
row,SMILES,TGI [µM]
1,CC1(C)[C@@H]2CC[C@]1(C)[C@H](OC(=O)CSC#N)C2,> 100
2,Cc1ccc(-n2[nH]nc(C(N)=O)c2=O)cc1,> 100
3,COc1ccc2c(c1)CN1C(=N2)CSC1c1cccc(Br)c1 (stereo unspecified),61.2
4,O=S(=O)(O)c1ccc(N=Nc2ccc3c(S(=O)(=O)O)cccc3c2O)c2ccccc12,> 100

# Test system: NCI-H23 lung
# Experiment: NCI tumour cell line growth inhibition, 48 h
row,SMILES,TGI [µM]
1,CC1(C)[C@@H]2CC[C@]1(C)[C@H](OC(=O)CSC#N)C2,> 100
